# “Also recorded” adds a separate entry of the source.
# Experiments:
# [1] = tested on: pathological angiogenesis in the retina; conditions: OIR, P17 retina, daily Imatinib after return to normoxia (P13-16), versus vehicle
# PXN Y118 phosphorylation = PXN Y118 phosphorylation in HDMEC plated on FN (immunofluorescence, immunoblotting); format: cell-based, human; conditions: 10 μM Imatinib 30 min before and during plating on FN, versus vehicle
# Procedure: (§1) (A-C) ABL1 kinase activity is essential for PXN phosphorylation. […] In (A), pPXN Y118 (green) is shown together with phalloidin (red) and DAPI (blue) on the left hand side and as single channel in grey scale on the right hand side; scale bar 20 μm. pPXN pixel intensity was quantified in (B) and expressed as fold change in knockdown cells at the indicated time points relative to control cells at 0 min; mean±SEM of four independent experiments.
# (§2) Human microvascular dermal EC (HDMEC; Promocell, UK) and human umbilical vein EC (HUVEC; Promocell) were cultured in standard conditions and transfected with Lipofectamine RNAIMAX (Life Technologies). Primary mouse lung EC (MLEC) were isolated from mice between one and two months of age by magnetic-activated cell sorting (MACS) with PECAM antibodies (BD Biosciences, UK). […] In some experiments, cells were stimulated with VEGF165 50 ng/ml for the indicated times.
# (§3) Immunofluorescence staining of HDMEC and p6 mouse retinas was analysed with a L5M710 laser scanning confocal microscope.
# retinal vasculature = assay: Physiological retinal angiogenesis in the perinatal mouse (IB4/FN labelled P6 retinal flatmounts); format: in vivo
# From the text: FIG. 7 ABL1 is essential for vessel spouting and branching in the retina. […] Vascular extension from the retinal centre to the vascular front is indicated with red arrows. […] Asterisks indicate statistical significance: **P<0.01.
# (C,D) Reduced astrocyte, but not vascular FN deposition in Imatinib-treated retinas. […] Note reduced FN staining of astrocyte processes ahead of the vascular front (A), whilst the vasculature was prominently stained for FN.
# Examples of abnormally long and wide sprouts without lateral protrusions or connections are indicated with arrows. (G) Quantification of filopodial bursts per vascular front length as an indicator of tip cell number, and quantification of branchpoints behind the vascular front; vehicle, n=7; P4/5, n=3; P2-5, n=4; ***P<0.001 versus control; ^♯P<0.05 for P4/5 versus P2-5treatment.
# All animal procedures were performed in accordance with institutional and UK Home Office guidelines. We used C57/616 wild type mice (Charles River Laboratories), littermate wild type and heterozygous Nrp/-null mutants and mice carrying two floxed conditional null Nrp1 alleles (Nrp1^fl/fl) combined with Pdgfb-iCre-ERT2-Egfp with codon-improved Cre on a C57/616 background. For tamoxifen-induction of CRE-mediated recombination, 0.2 mg of tamoxifen (SIGMA) dissolved in peanut oil to 2 mg/ml was administered via intraperitoneal injection into pups at the indicated times. […] OIR was induced as previously described. Briefly, nursing dams and their pups were maintained at 75±3% O2 in an oxygen supply chamber from P7 to P12; dams were rested in room air for 1 h each day. Dams and pups were returned to room air on P12 and the pups culled on P17 to isolate retinas for immunolabelling; the size of the avascular and neovascular areas was determined with Photoshop CS4 (Adobe Inc.) in images acquired with a SZX16 stereofluorescent microscope (Olympus) equipped with a digital camera (Hamamatsu Photonics Ltd).
# as §3
# HDMEC = assay: Actin remodelling and cell spreading of HDMEC plated on FN (phalloidin staining); format: cell-based, human; conditions: Imatinib-treated
# Procedure: as §1, §2, §3
# [2] = tested on: BCR-ABL-expressing Ba/F3 and bone marrow cells; conditions: murine xenograft models of leukaemia; cited from earlier work
# [3] = P6 retina, Imatinib P2 to P5, versus vehicle
# [4] = P6 retina, Imatinib on P4/5 or P2-5, versus vehicle
# [5] = P6 retina, Imatinib-treated mice
smiles,measurement,setting,value
Cc1ccc(NC(=O)c2ccc(CN3CCN(C)CC3)cc2)cc1Nc1nccc(-c2cccnc2)n1 [Imatinib],formation of neovascular tufts (NV area),[1],effectively inhibited; also recorded: reduced
same,PXN Y118 phosphorylation (pixel intensities in immunostains and immunoblots),PXN Y118 phosphorylation,significantly reduced
same,FN pixel intensity in IB4-positive (vascular) areas,retinal vasculature; [3],no difference; also recorded: not significantly (ns) changed
same,astrocyte FN deposition ahead of the vascular front,retinal vasculature; [3],significantly reduced
same,vascular extension across the retina,retinal vasculature; [3],"small, but significant reduction; also recorded: Reduced"
same,branchpoints behind the vascular front,retinal vasculature; [4],significant and lmatinib dose-dependent reduction; also recorded: Dose-dependent decrease
same,tip cells (filopodial bursts at the vascular front),retinal vasculature; [4],significantly fewer
same,filopodia morphology at the vascular front,retinal vasculature; [5],"thin, wavy and misoriented"
same,interaction of tip cells with microglia,retinal vasculature; [5],not prevented
same,sprout morphology at the vascular front,retinal vasculature; [5],"longer and wider, with fewer lateral protrusions connecting to neighbouring sprouts"
same,vascular network density,"retinal vasculature; P6 retinal flatmounts, Imatinib versus vehicle",reduced
same,cell spreading,HDMEC,reduced
same,stress fibres / cortical actin (phalloidin),HDMEC,"few stress fibres, but abundant cortical actin"
"O=C(NCCO)c1cccc(-c2cc(Nc3ccc(OC(F)(F)F)cc3)ncn2)c1 [GNF-5, N-(2-Hydroxyethyl)-3-(6-(4(trifluoromethoxy)phenylamino)pyrimidin-4-yl)benzamide]",suppression of proliferation of BCR-ABL-expressing cells in vivo,[2],exhibits in vivo efficacy in suppressing the proliferation

# From patent publication US20170027936A1, “ABL1 INHIBITOR FOR TREATING AND PREVENTING OCULAR NEOVASCULARISATION” (UCL BUSINESS PLC, priority 2014, published 2017)
